Test results taken from patent US20160008298A1, “XANTHOHUMOL-BASED COMPOUNDS AND COMPOSITIONS THEREOF, AND METHODS OF MAKING AND USING THE SAME” (Oregon State University, priority 2014, published 2016).

Key:
[1] = test system: C2C12 skeletal muscle cells; test: Seahorse OCR and ECAR measurements after oligomycin; assay type: cell-based, mouse; settings: oligomycin 1 μM; for ECAR plateau after injection of oligomycin: % pre oligomycin values
Method: OCR and ECAR measurements were performed with a Seahorse XF 24 Analyzer (Seahorse Bioscience). Cells were plated 24 hours prior to measurements at a density of 40,000 cells per well within growth medium in a 24-well plate. The cells were then allowed to adhere for 24 hours (37° C., 5% CO2). Prior to the assay, the cells were washed with freshly prepared running media consisting of Seahorse XF Assay medium (Seahorse Bioscience, North America, USA), 10 mM glucose and 1 mM sodium pyruvate. The pH of the medium was adjusted to 7.4 with 1 M NaOH. The cells were then equilibrated for one hour at 37° C. without CO2. The compounds were injected during the assay; OCR and ECAR were measured at 9 minutes measurement intervals. The solutions of oligomycin, FCCP, XN, DXN and TXN were freshly prepared in running medium. The final concentrations in the wells were: 1 μM for oligomycin, 5 μM for XN, DXN and TXN and 2, 5, 8, 25 μM for the dose response experiments with DXN. Ethanol was added to the control wells not to exceed a final concentration of 0.1%. All the compounds were tested in quadruplicate on the 24-well plate. XN is highly non-polar and FBS can be used to dissolve XN. Thus, XN, DXN and TXN were first dissolved in ethanol and the resulting solutions were diluted 100-fold in running medium containing 1% of FBS. After a further 10-fold dilution into the media in wells, only 0.1% of FBS was present during OCR measurements. […] The concentration of oligomycin and the cell density used were selected based on preliminary experiments.
Seahorse data were analyzed in SAS 9.2 (SAS Institute Inc., Cary, N.C.). To show a consistent baseline, OCR values (in pmol/min/mg protein) and ECAR values (in mpH/min/mg protein) for each value were divided prior to statistical analysis by the average of the four pre oligomycin treatment values (0, 8, 17, and 25 minutes) for the corresponding well and are shown as % pre oligomycin values. The original scale for OCR and for ECAR values was utilized for the OCR/ECAR ratio (in pMol/mpH). To account for repeated measures within wells over time, a repeated-measures-in-time design using ANOVA procedures in PROC MIXED was used. Fixed effects in the model were treatment (control, 2 μM DXN, 5 μM XN, 5 μM DXN, and 5 μM TXN for the compound study and control, 2, 5, 8, and 25 μM DXN for the DXN dosage study), time (0, 8, 17, 25, 34, 43, 52, 60, 69, 78, 86, and 95 minutes), and their interaction. The random effect was the experiment (5 experiments for the compound study and 3 experiments for the DXN dosage study). To account for repeated measures within wells over time, a first order homogeneous variance-covariance matrix [AR(1)] was fitted for each well. Using the ESTIMATE statement, a priori contrasts were constructed by comparing the changes in compound treated cells from the last two time points prior to compound treatment (average 52 and 60 minutes) to the changes in control cells during the same time period. This was done for each compound and dosage for 69, 78, 86, and 95 minutes separately and for all four time points combined. […] A P-value of 0.05 was considered statistically significant and is shown as star in the graphs (FIG. 5).

[2] = test system: plasma membrane; settings: cited from earlier work
[3] = test system: mitochondrial transmembrane potential in C2C12 cells; test: JC-1 assay of mitochondrial transmembrane potential; assay type: cell-based, mouse; settings: 2.5 μM
Method: Cells were plated at a density of 80,000 cells per well in black 96-well plates and incubated for 24 hours at 37° C. (5% CO2). They were then treated with fresh solutions of various concentrations of XN, DXN or TXN in growth medium. The final concentrations of XN, DXN, TXN were 1, 2, 5, 8, 25, 50 μM, all in quadruplicate wells, in the 96-well plates. After one hour of exposure to the compounds at 37° C. (5% CO2), the cells were treated with 10 μL of a JC-1 staining solution (freshly prepared by diluting 11 fold 100 μL of the JC-1 agent furnished from the assay kit). After 15 to 30 minutes of incubation (37° C., 5% CO2), the cells were washed three times with the Cell-Based Assay Buffer (prepared by dissolving three buffer tablets of the kit in 300 mL of MilliQ water). The plates were then analyzed by a fluorescent plate reader (SpectraMax Gemini XS) at 560-595 nm and 485-535 nm.
JC-1 can selectively enter into mitochondria and reversibly change color from green to red as the membrane potential increases. In healthy cells with high mitochondrial transmembrane potential, JC-1 spontaneously forms complexes known as J-aggregates with intense red fluorescence with excitation and emission at 560 nm and 595 nm, respectively. […] The ratio of fluorescence intensity of J-aggregates to fluorescence intensity of J-monomers can be used as an indicator of cell heath or mitochondrial state. […] A decrease in the values of the ratios compared to the control is indicative of an alteration in the potential across the mitochondrial membrane.

[4] = test system: mice; settings: mouse; cited from earlier work

CC[C@H]1/C=C/C=C/C[C@@H](C)[C@H](O)[C@@](C)(O)C(=O)[C@@H](C)[C@H](O)[C@@H](C)C(=O)[C@@H](C)[C@H](O)[C@@H](C)/C=C/C(=O)O[C@@H]2[C@H](C)[C@H](CC1)O[C@]1(CC[C@H](C)[C@H](C[C@@H](C)O)O1)[C@H]2C [oligomycin, reference compound]
residual OCR after oligomycin ([1]; DXN dosage experiment): 51.4±6.3% | ECAR plateau after injection of oligomycin ([1]; DXN dosage study): 151.1±3.4% | ECAR plateau after injection of oligomycin ([1]; compound study): 160.1±5.1%

N#CC(C#N)=NNc1ccc(OC(F)(F)F)cc1 [FCCP, carbonyl cyanide-4-(trifluoromethoxy)phenylhydrazone, reference compound]
concentration from which the plasma membrane is depolarized [2]: above 2.5 μM | ratio value of aggregates to monomers (JC-1, percent of control) [3]: 33.0±5.6%

O=[N+]([O-])c1ccc(O)c([N+](=O)[O-])c1 [dinitrophenol, reference compound]
LD50 [4]: 45 mg/kg
